PMC12118337, “Development of a Peptide Inhibitor Targeting the C‐SH2 Domain of the SHP2 Phosphatase” (Chembiochem, 2025)
Residues, ends and D or L forms follow the SMILES beside them. *: point of attachment. 5FAM = O=C1OC2(c3ccc(O)cc3Oc3cc(O)ccc32)c2ccc(C(=O)*)cc21; X1 = O=C(O)C(C(=O)O)*

Biological target: T1, SHP2 C‐SH2 domain (Homo sapiens, UniProt Q06124)
T1 construct: SHP2 N-SH2 domain (1–105), C-SH2 domain (106–220), PTP domain (224–541) and; His6 (pETM22 vector) (N, cleaved yes); made in house; host or cells: E. coli BL21(DE3)
T1 sequence (Q06124 106-220): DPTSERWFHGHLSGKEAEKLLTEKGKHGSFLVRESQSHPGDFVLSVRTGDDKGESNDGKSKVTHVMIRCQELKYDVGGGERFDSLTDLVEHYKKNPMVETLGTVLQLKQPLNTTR
Assay: Fluorescence polarization (FP) binding assay, SHP2 C-SH2 domain
Settings: 100 nM FAM-labelled peptide, increasing C-SH2 protein, 50 mM HEPES pH 7.5, 150 mM NaCl, 1 mM EDTA, 0.05% Tween 20, FP at 10 min, three independent experiments in technical triplicates, read-out: K D ± SEM, C‐SH2 (FP)

Kd: 1600 ± 388 nM
Structure (SMILES): CC[C@H](C)[C@H](NC(=O)[C@@H](NC(=O)[C@H](C)NC(=O)[C@H](Cc1ccc(OC(C(=O)O)C(=O)O)cc1)NC(=O)[C@H](CCC(=O)O)NC(=O)[C@@H](NC(=O)[C@H](CCC(N)=O)NC(=O)c1ccc2c(c1)C(=O)OC21c2ccc(O)cc2Oc2cc(O)ccc21)[C@@H](C)O)[C@@H](C)O)C(=O)N[C@@H](CCCCN)C(=O)N[C@@H](Cc1c[nH]cn1)C(=O)N1CCC[C@H]1C(N)=O [peptide 26] (5FAM-QTEY(X1)ATIKHP-NH2)
